In general, pKd refers to −log10 of the Kd, conventionally taken in molar units. Read a high pKd as a low Kd. Broadly, the MIC is the least concentration at which growth counts as inhibited. Broadly, the IC50 is the concentration needed to halve the response being measured. The pKi is the Ki on a negative log10 scale, so that one unit is a factor of ten.

Structures are written as SMILES. pKd, pKi: −log10 of the molar value. Where “and” joins values, the source holds several entries; their conditions need not be identical. Equal entries are not always repeated. Where two headings read alike, the source gives them in different places.

Series [1] deals with T1, ICLPa (Pseudomonas aeruginosa, UniProt Q9I0K4).
T1 sequence (Q9I0K4 1-531): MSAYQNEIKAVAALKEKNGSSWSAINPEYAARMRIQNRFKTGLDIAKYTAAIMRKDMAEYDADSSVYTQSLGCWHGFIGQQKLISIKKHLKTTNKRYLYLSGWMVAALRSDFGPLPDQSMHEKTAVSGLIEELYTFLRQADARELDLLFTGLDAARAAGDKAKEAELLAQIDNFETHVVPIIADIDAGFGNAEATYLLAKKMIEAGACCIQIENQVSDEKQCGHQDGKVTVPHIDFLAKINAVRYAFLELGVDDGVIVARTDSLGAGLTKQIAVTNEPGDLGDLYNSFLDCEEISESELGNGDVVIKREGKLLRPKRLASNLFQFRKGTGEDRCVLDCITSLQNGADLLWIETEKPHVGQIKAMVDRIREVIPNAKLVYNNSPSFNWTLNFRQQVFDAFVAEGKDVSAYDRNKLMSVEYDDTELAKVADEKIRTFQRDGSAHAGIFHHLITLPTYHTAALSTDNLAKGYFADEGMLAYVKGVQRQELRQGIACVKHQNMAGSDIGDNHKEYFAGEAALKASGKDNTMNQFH
Description: Isothermal titration calorimetry, ICLPa. Conditions: ITC. A general note: In ITC the heat of successive injections is recorded.
Description: Protein samples were dialyzed (2 × 1 L) in a D-tube dialyzer (Merck, Watford, UK) for 3 h in 25 mM Tris-HCl, 100 mM NaCl, and 0.1 mM TCEP (pH 7.5). […] The syringe and the cell both contained a final concentration of 0.1% DMSO. The injection parameters for MSPa were: Reference power 15 µcal/sec, initial injection of 3 µL (3.6 sec per injection) with subsequent injections of 10 µL (12 sec per injection). Injections were spaced by 150 sec with a filter period of 2 sec. The injection parameters for ICLPa were: Reference power 15 µcal/sec, initial injection of 3 µL (3.6 sec per injection) with subsequent injections of 8 µL (10 sec per injection). Injections were spaced by 170 sec with a filter period of 2 sec. Data were analyzed in NITPIC (NITPIC, Bethesda, MD, USA) [31] for baseline calculations and then fit for thermodynamic parameters using the OneSite model in Origin 7.0 software (Origin Software Solutions, Bristol, UK). Each titration was carried out in duplicate.

Series [2] concerns the target T1, ICLPa. The experiment in a line: Kinetic mode of action on ICLPa. The format is biochemical. Details: made in house. Conditions: isocitrate titrated; uncompetitive model, GraphPad Prism. The protocol:
(§1) The enzymatic activity of purified ICLPa and MSPa was assayed essentially as previously described. Compounds were added to the reaction mixtures (minus substrates) and incubated for 5 min at 37 °C. The enzyme concentration in the reaction mixtures was 170 nM for ICL and 25 nM for MS (based on the concentration of the monomer in each case). […] The reactions were initiated by the addition of pH-adjusted substrates, and the initial rates were recorded as A324 nm (for ICLPa) and A412 nm (for MSPa) using a Biospectrometer (Eppendorf, Stevenage, UK). Substrate turnover was calculated from the molar extinction coefficient of the assay products: Glyoxylate-phenylhydrazone (16,800/M/cm) for ICLPa and 2-nitro-5-thiobenzoic acid (14,150/M/cm) for MSPa.
(§2) The mode of action of SB002 on MSPa and ICLPa was determined by titrating the respective substrates of each enzyme in the presence of three fixed concentrations of SB002 (selected to lie around the measured IC50 value) and measuring the reaction rates as outlined in Section 4.3. Double-reciprocal plots and best-fit inhibition models (GraphPad Prism v. 7.04) were used to assess the mode of inhibition. Inhibition constants were calculated using GraphPad Prism v. 7.04 (GraphPad Software, Inc., La Jolla, CA, USA). Each data point represents the mean ± SD for three independent replicates.

Series [3] deals with P. aeruginosa. Details: method as in Fahnoe et al. [13]. The note with it: ref Fahnoe et al. [13], cited from earlier work.
Series [4] in a line: CellTiter-Glo luminescent cell viability assay (ATP), H27. The note with it: human; H27 cells, 48 h, ATP luminescence; read-out: Cytotoxicity IC50 H27. The format is cell-based, human. The protocol:
(§3) The number of viable cells based on ATP quantification was determined using the CellTiter-Glo® luminescent cell viability assay (Promega, Madison, WI, USA, lot no. 0000200446). Briefly, cells were seeded into white, flat-bottomed, sterile 96-well plates (PerkinElmer, Beaconsfield, UK) and incubated for 24 h. For A-375 cells, we used 10,000 cells/well, and for H27 cells, we used 7500 cells/well. Test compounds were diluted in assay medium (Glutamax DMEM with 5% FBS (Gibco)) and added to the plates in two-fold dilutions starting at 100 µM. Negative controls (0.5% DMSO) and positive controls (camptothecin, 1.6 µM for the A-375 cells and 50 µM for the H27 cells) were also included, and the plates were incubated for an additional 48 h (95% humidity, 5% CO2 at 37 °C). After incubation, the cells were washed with PBS. To each well, we then added 50 µL of assay medium plus 50 µL of CellTiter-Glo® reagent. The samples were then shaken for 2 min at 100 rpm at 25 °C, followed by a further 10 min at 25 °C to stabilize the luminescence signal. Luminescence was measured using a VarioSkan LUX multimode microplate reader (Thermo Fisher Scientific, Vantaa, Finland).
A general note: In ATP-based viability assays light output follows the ATP content of the culture.

Series [5] has as its system H27 cells. The series is described as above. The format is cell-based, human. Conditions: IC50 cytotoxicity/IC50 P. aeruginosa growth inhibition in M9 acetate. As for the experimental part:
as §3

A short description of series [6]: CytoTox 96 LDH release cytotoxicity assay, U937. The format is cell-based, human. Conditions: human; U937 cells, LDH release. The protocol: (§4) The CytoTox 96® nonradioactive cytotoxicity assay (Promega, Madison, WI, USA) was performed to determine the number of cells affected by necrosis measuring LDH release. A U937 cell suspension (5 × 10^5 cells/mL) was prepared, and 99.5 µL of this suspension were added to the wells of clear, sterile, 96-well, U-bottomed plates (Greiner, Dungannon, UK). The test compounds (0.5 µL of a 200 × concentrated stock) or 0.5% DMSO (control) were added to each well, and the plates were shaken for 1 min at 100 rpm, followed by 3.5 h at 37 °C with 5% CO2. At this point, CytoTox 96® 10× lysis solution was added to the wells reserved for total lysis. These samples represented the LDH released following complete cell lysis. After 30 min, 50 µL of supernatant from each test well and total lysis well was transferred to new 96-well plates (Thermo Fisher Scientific, Bishop’s Stortford, UK). Prethawed CytoTox 96® buffer was mixed with the CytoTox 96® substrate, and 50 µL were added into each well. The plates were incubated for 10 min in darkness at 25 °C. CytoTox 96® stop buffer (50 µL) was added, and the plates were incubated for a further 15 min. LDH release was quantified by measuring A492 nm in a CLARIOstar® multimode microplate reader (BMG Labtech, Aylesbury, UK).
Background: LDH in the medium is a marker of cell lysis.

Series [7] relates to U937 cells. The experiment in a line: CytoTox 96 LDH release cytotoxicity assay, U937. The format is cell-based, human. The note with it: IC50 cytotoxicity/IC50 P. aeruginosa growth inhibition in M9 acetate. The protocol:
as §4

For series [8], the target named is MSPa (Pseudomonas aeruginosa, UniProt Q9I636). Description: Kinetic mode of action on MSPa. The format is biochemical. The arrangement: made in house. The protocol:
as §1, §2

The nature of series [9]: CellTiter-Glo luminescent cell viability assay (ATP), A-375. Conditions: human; A-375 cells, 48 h, ATP luminescence; read-out: Cytotoxicity IC50 A-375. The format is cell-based, human. The protocol:
as §3

For series [10], the system named is A-375 cells. The series is described as above. The format is cell-based, human. Conditions: IC50 cytotoxicity/IC50 P. aeruginosa growth inhibition in M9 acetate. As for the experimental part: as §3
The mark [11] stands for this setting: 25 °C, reverse titration, ICLPa.

MSPa, sequence (Q9I636 whole entry): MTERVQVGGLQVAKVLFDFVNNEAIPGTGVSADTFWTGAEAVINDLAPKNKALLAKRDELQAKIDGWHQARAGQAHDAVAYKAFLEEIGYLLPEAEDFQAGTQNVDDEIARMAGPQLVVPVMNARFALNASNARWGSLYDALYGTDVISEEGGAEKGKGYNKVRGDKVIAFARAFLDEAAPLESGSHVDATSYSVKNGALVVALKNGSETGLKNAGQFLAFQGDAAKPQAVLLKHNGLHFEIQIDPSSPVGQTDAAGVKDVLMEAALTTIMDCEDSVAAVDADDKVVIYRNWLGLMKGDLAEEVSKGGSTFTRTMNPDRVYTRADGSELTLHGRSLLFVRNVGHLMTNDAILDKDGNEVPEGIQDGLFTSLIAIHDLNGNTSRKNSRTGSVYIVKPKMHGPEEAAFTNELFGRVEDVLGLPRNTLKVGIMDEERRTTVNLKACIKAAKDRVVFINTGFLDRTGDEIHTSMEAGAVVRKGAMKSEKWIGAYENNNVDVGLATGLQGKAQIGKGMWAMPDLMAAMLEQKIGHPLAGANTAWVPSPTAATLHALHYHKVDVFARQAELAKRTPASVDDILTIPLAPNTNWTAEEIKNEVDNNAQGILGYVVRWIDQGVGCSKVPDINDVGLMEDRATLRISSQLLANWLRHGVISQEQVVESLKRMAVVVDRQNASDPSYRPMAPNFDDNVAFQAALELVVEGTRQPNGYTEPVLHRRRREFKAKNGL

As to `CC(C)(C)OC(=O)/N=C(\NC(=O)OC(C)(C)C)Nc1cc(Cl)ccn1` [SB002], in [1] (setting [11]), the Ka came out at 718000 ± 149000 M, the pKd was 5.84, the ΔG is reported as −7.98 ± 3.44×10^−1 kcal/mol and the ΔH is listed as −4.22 ± 3.44×10^−1 kcal/mol. In series [1] (setting [11]), the “−TΔS” value was -3.76 kcal/mol. Also, in series [1] (per monomeric unit of ICLPa), the “n (binding sites)” value is 0.53 and 0.53 ± 3.25 × 10^−2. The “Ki’ (inhibition constant for binding to the enzyme-substrate complex), ICLPa” value in series [2] came to 21.3 µM. Also, the MIC in series [3] (conversion of 8 μg/mL) is listed as 21.6 µM. Moreover, the MIC in [3] was 8 µg/mL. For the same compound, the IC50 at 48 h in series [4] was 98.4 µM. Moreover, the “Therapeutic index H27” value in [5] is 93 and 93.73. Also, the midpoint of inhibition in series [6], the IC50 at 3.5 h, lay at 18.2 µM. Further, in series [7], the “Therapeutic index U937” value was 17 and 17.31. For the same compound, the pKi in [8] is 5.35. Also, in [8] (acetyl-CoA varied, saturating (200 µM) glyoxylate), the “Mode of inhibition of MSPa with respect to acetyl-CoA” value is “competitive mode of inhibition”. For the same compound, the “Ki’ (binding to the ES complex), MSPa” value in [8] (glyoxylate varied, 200 µM acetyl-CoA) is reported as 3.9 µM. The “Mode of inhibition of MSPa with respect to glyoxylate” value in series [8] (glyoxylate varied, saturating (200 µM) acetyl-CoA) was “uncompetitive inhibition at the lower inhibitor concentrations tested, and noncompetitive inhibition at the higher concentration of inhibitor”.
In the case of `CC(C)(C)OC(=O)/N=C(\NC(=O)OC(C)(C)C)Nc1cc(C#N)ccn1` [SB023], the IC50 at 48 h was 205 µM in [4] and 106 µM in series [9]. Besides, the “Therapeutic index H27” value in [5] is on record as 23.27. For the same compound, in series [10], the “Therapeutic index A-375” value worked out at 11.95. This compound registered an IC50 at 3.5 h in series [6] of 3220 µM. Further, the “Therapeutic index U937” value in series [7] is 364 and 364.37.

The record behind these values is PMC7177833, “2-Aminopyridine Analogs Inhibit Both Enzymes of the Glyoxylate Shunt in Pseudomonas aeruginosa” (International Journal of Molecular Sciences, 2020).
